“Also recorded” adds a separate entry of the source.
Key:
[1] = tested on: spermatozoa; test: Static oxidation-reduction potential (sORP) of human sperm samples by MiOXSYS; format: cell-based; details: for Change in oxidation-reduction potential (sORP, ratio treated/untreated): mean±SD; for Oxidation-reduction potential, samples 42_1 and 38_7 (in words): samples with drastically elevated untreated values, FIGS. 7D and 8D
Method: (§1) Between 1.46 mL and 5.7 mL human semen/spermatozoa were collected from healthy males of between 25 and 50 years of age in 100 mL sample vials on site. Samples were then divided into two equal fractions each for subsequent incubation with CO (wCO) and without CO (woCO). In order to estimate the spermatozoa concentration in the samples and to establish an initial baseline for each sample, a routine spermiogram was performed before samples were transferred to gas-tight 15 mL Falcon tubes. Samples were incubated at 25-35 °C for 90 minutes with and without an activated CORS system in a closed container. During this incubation period liquefaction took place naturally. The samples were then analyzed for total motility, progressive motility, static oxidation-reduction potential, and for DNA fragmentation. Total motility, progressive motility and concentration of the samples were assessed using a CEROS II (Hamilton Thorne, Beverly, MA) computer assisted sperm analysis (CASA) system. 6 μL of a sperm sample diluted 1:1 with Multipurpose Handling Medium-Complete (MHM-C, FujiFilm/IrvineScientific, Santa Ana, CA) was measured and the concentration and level of mobility (total and progressive motility) was assessed.
A Male Infertility Oxidative System (MiOXSYS, Englewood, CO) was used to determine static oxidation-reduction potential (sORP) levels. 30 μL of the sperm samples were transferred to the sample application port on a MiOXSYS sensor and analyzed for 2 minutes.
(§2) In this example, sperm samples were treated with either one, three, or six CORS capsules, each loaded with 5 mg Mo-CORM (corresponds to 0.44 mL CO) for 60 to 270 mins, or left untreated for the same amount of time.
(§3) Human sperm was collected from healthy volunteers in 100 ml specimen containers. Afterwards, the ejaculate was split into equal parts and filled into 15 mL gas tight falcon tubes, with one of the samples being exposed to one or more activated CORS. Then, both samples were analyzed for motility parameters via computer assisted sperm analysis (CASA), the static oxidation-reduction potential (sORP) via MiOXSYS and sperm DNA-fragmentation (SDF) via dispersion test with Halosperm G2 Kit after a predetermined time.
An oxidative male infertility measuring System (MiOXSYS, Englewood, CO) was used to determine static oxidation-reduction potential (SORP) levels following manufacturer's specifications. 30 μL of sample were transferred to the sample application port onto a MiOXSYS sensor and analyzed for 2 minutes. The results were expressed in milli Volt (mV) and normalized to the seminal sperm concentration (mV/106 sperm/mL).

[2] = tested on: spermatozoa; test: Computer assisted sperm analysis (CASA, CEROS II) of human spermatozoa treated with CO vs. without CO: total motility, progressive motility, average path velocity (VAP); format: cell-based; details: for Change in progressive motility (ratio treated/untreated) / Change of VAP (ratio treated/untreated) / Change in motility (ratio treated/untreated) / Change in velocity of the sperm cells (VAP, ratio treated/untreated): mean±SD
Method: as §1, §2, §3
Total motility, progressive motility, VAP, and concentration of the samples were tested using a CEROS II (Hamilton Thorne, Beverly, MA) computer assisted sperm analysis (CASA) system. 6 μL of a sperm sample diluted 1:1 with Multipurpose Handling Medium-Complete (MHM-C, Fuji Film/Irvine Scientific, Santa Ana, CA) was investigated with the CASA system, and the level of mobility was assessed.

[3] = tested on: spermatozoa; test: Sperm DNA fragmentation (SDF) by dispersion test, Halosperm G2 Kit; format: cell-based, human; details: for DNA-fragmentation change (SDF, ratio treated/untreated): mean±SD
Method: as §1
To determine DNA fragmentation a count-based microscopy assay was performed. For this spermatozoa samples were diluted using MHM-C (Multipurpose Handling Medium-Complete, FujiFilm, IrvineScientific) to a maximum of 20×E6 spermatozoa per mL and analyzed using a Halo Sperm G2 Kit (Halotech, Madrid, Spain). Samples were mixed with the prepared agarose according to manufacturer instructions. 8 μL of the resulting mixture was then put on microscopy slides and cooled down for 5 minutes by removing the heat source. The prepared samples were further treated according to the manufacturer's instructions: denaturant for 7 minutes, lysis solution for 20 minutes, distilled water for 5 minutes, 70% ethanol for 2 minutes, 100% ethanol for 2 minutes, eosin staining solution for 7-10 minutes, and thiazine staining solution for 7-10 minutes. At least 300 spermatozoa were then analyzed using a bright field microscope.
as §2, §3
Sperm DNA fragmentation (SDF) was assessed via dispersion test using a Halosperm G2 Kit (From Halotech, Madrid, Spain) following manufacturer's specifications. In brief, the samples were diluted to a maximum of 20 mio/mL. The samples were, then, mixed with the prepared agarose. 8 μL of the mixture was transferred on slides and cooled down for 5 minutes. Different reagents were added and discarded after the set time: Denaturant agent was added for 7 minutes, lysis solution for 20 minutes, distilled water for 5 minutes, 70% ethanol for 2 minutes, 100% ethanol for 2 minutes, eosin staining solution for 7-10 minutes, and thiazine staining solution for 7-10 minutes. A minimum of 400 sperms were analyzed using an Olympus IX73 Inverted LED Fluorescence Microscope.

[4] = 0.44 mL CO (5 mg Mo-CORM), 90 min
[5] = 1.32 mL CO (15 mg Mo-CORM), 60 min
[6] = 1.32 mL CO (15 mg Mo-CORM), 90 min
[7] = 1.32 mL CO (15 mg Mo-CORM), 180 min
[8] = 1.32 mL CO (15 mg Mo-CORM), 270 min
[9] = 2.64 mL CO (30 mg Mo-CORM), 90 min
[10] = Example 3, 60 min and 90 min, 0.44 mL and 1.32 mL CO
[11] = Example 3, up to 90 min, 0.44-2.64 mL CO

Q: What does the source list for `[C-]#[O+]` [CO, carbon monoxide]?
A: Change in oxidation-reduction potential (sORP, ratio treated/untreated) [1, 4]: 0.89±0.17 fold; Change in oxidation-reduction potential (sORP, ratio treated/untreated) [1, 5]: 0.57±0.35 fold; Change in oxidation-reduction potential (sORP, ratio treated/untreated) [1, 6]: 0.91±0.12 fold; Change in oxidation-reduction potential (sORP, ratio treated/untreated) [1, 7]: 1.02±0.32 fold; Change in oxidation-reduction potential (sORP, ratio treated/untreated) [1, 8]: 1.13±0.28 fold; Change in oxidation-reduction potential (sORP, ratio treated/untreated) [1, 9]: 0.59±0.24 fold; Correlation of CO effect on sORP with untreated sORP (in words) ([1]; 60 min and 90 min, 15 mg CORM, FIG. 9): particularly effective in subjects that suffer from high sperm oxidation-reduction potential; Relative oxidation-reduction potential wCO/woCO (in words) ([1]; Example 2, 15 mg Mo-CORM, 90 min, 25-35 °C, 6 subjects, FIG. 2): show a trend to be lower in the samples that were contacted with CO; also recorded: a reduction in oxidative stress/ROS; Oxidation-reduction potential vs untreated (in words) [1, 10]: reduced; Oxidation-reduction potential, samples 42_1 and 38_7 (in words) [1]: strong reduction; Oxidation-reduction potential, samples 42_1 and 38_7 (in words) ([1]; listed as carbon monoxide): reduced oxidation-reduction potential; Change in progressive motility (ratio treated/untreated) [2, 4]: 0.97±0.12 fold; Change of VAP (ratio treated/untreated) [2, 4]: 1.01±0.08 fold; Change in motility (ratio treated/untreated) ([2]; 0.44 mL CO (5 mg Mo-CORM, one CORS), 90 min): 0.98±0.12 fold; Change in progressive motility (ratio treated/untreated) [2, 5]: 0.85±0.13 fold; Change in velocity of the sperm cells (VAP, ratio treated/untreated) [2, 5]: 0.94±0.09 fold; Change in motility (ratio treated/untreated) [2, 6]: 0.99±0.03 fold; Change in progressive motility (ratio treated/untreated) [2, 6]: 0.92±0.17 fold; Change in velocity of the sperm cells (VAP, ratio treated/untreated) [2, 6]: 0.96±0.04 fold; Change in motility (ratio treated/untreated) [2, 7]: 1.16±0.37 fold; Change in progressive motility (ratio treated/untreated) [2, 7]: 0.72±0.19 fold; Change in velocity of the sperm cells (VAP, ratio treated/untreated) [2, 7]: 0.79±0.13 fold; Change in motility (ratio treated/untreated) [2, 8]: 0.94±0.20 fold; Change in progressive motility (ratio treated/untreated) [2, 8]: 1.04±0.48 fold; Change in velocity of the sperm cells (VAP, ratio treated/untreated) [2, 8]: 0.97±0.08 fold; Change in motility (ratio treated/untreated) ([2]; 1.32 mL CO (15 mg Mo-CORM, three CORS), 60 min): 1.13±0.41 fold; Change in progressive motility (ratio treated/untreated) [2, 9]: 0.88±0.10 fold; Change of VAP (ratio treated/untreated) [2, 9]: 1.03±0.03 fold; Change in motility (ratio treated/untreated) ([2]; 2.64 mL CO (30 mg Mo-CORM, six CORS), 90 min): 0.90±0.12 fold; Relative total motility wCO/woCO (in words) ([2]; Example 2, 15 mg Mo-CORM, 90 min, 25-35 °C, 5 subjects, FIG. 4A): no differences between samples that were contacted with CO (wCO) and without CO (woCO); Relative progressive motility wCO/woCO (in words) ([2]; Example 2, 15 mg Mo-CORM, 90 min, 25-35 °C, 5 subjects, FIG. 4B, exception subject 6): progressive motility is increased for wCO as compared to woCO; also recorded: an improvement of progressive motility; Effect on spermatozoan motility (in words) ([2]; Example 3, 60 min or 90 min, 0.44 mL or 1.32 mL CO): no negative effects on spermatozoan motility; Effect on progressive motility vs untreated (in words) [2, 11]: did not impair sperm motility, progressive motility; Effect on sperm motility vs untreated (in words) [2, 11]: did not impair sperm motility; Effect on velocity vs untreated (in words) [2, 11]: did not impair sperm motility, progressive motility, and velocity; DNA-fragmentation change (SDF, ratio treated/untreated) [3, 4]: 0.83±0.09 fold; DNA-fragmentation change (SDF, ratio treated/untreated) [3, 5]: 0.77±0.07 fold; DNA-fragmentation change (SDF, ratio treated/untreated) [3, 6]: 0.67±0.24 fold; DNA-fragmentation change (SDF, ratio treated/untreated) [3, 7]: 0.90±0.11 fold; DNA-fragmentation change (SDF, ratio treated/untreated) [3, 8]: 0.90±0.19 fold; DNA-fragmentation change (SDF, ratio treated/untreated) [3, 9]: 1.31±0.55 fold; Correlation of CO effect on SDF with untreated SDF (in words) ([3]; 60 min and 90 min, 15 mg CORM, FIG. 10): particularly effective in subjects that suffer from high sperm oxidation-reduction potential and/or DNA-fragmentation; Relative DNA fragmentation wCO/woCO (in words) ([3]; Example 2, 15 mg Mo-CORM, 90 min, 25-35 °C, 3 subjects, FIG. 3): DNA fragmentation is reduced in samples that were contacted with CO; also recorded: a reduction in DNA fragmentation; DNA fragmentation, subjects 3 and 4 (in words) ([3]; Example 2, FIG. 3, treated vs untreated aliquots of same donor): less DNA fragmentation; Spermatozoan DNA-fragmentation (SDF) vs untreated (in words) [3, 10]: reduced; DNA fragmentation, samples 42_1 and 38_7 (in words) ([3]; samples with drastically elevated untreated values, FIGS. 7E and 8E): strong reduction

From patent publication US20260365990A1, “METHOD FOR THE PRESERVATION OF FUNCTIONAL GAMETES” (Julius-Maximilians-Universität Würzburg, in Vertretung des …, priority 2022, published 2026)
